Legend:
[1] = Solubility of perfluorocarbon contrast agents in oil phase; format: physicochemical
Text: Perfluoroctylbromide (PFOB) is a known contrast agent for the magnetic resonance spectroscopy.

[2] = Density measurement of mixtures of MCT and F6H8; format: physicochemical; conditions: mixture with about 61.5 wt.-% MCT, based on total weight of the oil phase
Text: By adapting the density of the oil phase to the density of the aqueous phase coalescence phenomena of the droplets as well as sedimentation phenomena, which destabilize the emulsion, can be decreased.

SMILES: FC(F)(F)C(F)(F)C(F)(F)C(F)(F)C(F)(F)C(F)(F)C(F)(F)C(F)(F)Br [PFOB, Perfluoroctylbromide, reference compound]
- Solubility in MCT [1]: cannot be dissolved in MCT

SMILES: FC(F)(F)C(F)(F)C(F)(F)C(F)(F)C(F)(F)C(F)(F)C(F)(F)C(F)(F)C(F)(F)C(F)(F)Br [PFDB, perfluorodecylbromide]
- Solubility in PFOB [1]: can be dissolved in PFOB

SMILES: CCCCCCCCC(F)(F)C(F)(F)C(F)(F)C(F)(F)C(F)(F)C(F)(F)F [Example F6H8, perfluorohexyloctane]
- Content of F6H8 in oil phase at which density of the oil mixture corresponds to the density of the aqueous phase [2]: about 38.5 wt.-%
